Experimental data as given in patent publication US20230303557A1, “CRYSTALLINE FORM OF TLR8 AGONIST” (CHIA TAI TIANQING PHARMACEUTICAL GROUP CO., LTD., priority 2020, published 2023).
Counter-ions that a name gives are not always drawn.

Legend:
[1] = High-temperature (60° C.) stability testing; type: physicochemical
Procedure: 2) Testing for the Effect of Temperature
Each sample was placed on an open watch glass and tested under high-temperature conditions (60° C.).

[2] = Accelerated stability testing (40±2° C./75±5% RH); type: physicochemical
Procedure: Inner packaging: a double-layer medical low-density polyethylene bag; outer packaging: an aluminum foil bag.
Test conditions: 40±2° C./75±5% RH.

[3] = High-humidity (25° C./92.5 RH) stability testing; type: physicochemical; conditions: for Appearance / Content / Enantiomer / Total impurity content / Water: 25° C./92.5RH
Procedure: 3) Testing for the Effect of Humidity
Each sample was placed in an open low-form weighing bottle and tested under high-humidity conditions (25° C./92.5 RH).

Photostability testing = type: physicochemical; conditions: for Appearance / Content / Enantiomer / Total impurity content / Water: photostability
Description: 1) Photostability Testing
Two test samples (one as a 5-day test sample, the other as a 10-day test sample) and two controls (one as a 5-day control, the other as a 10-day control) were used. The test samples were spread as thin layers on clean watch glasses and covered with quartz glass covers. The controls were packaged in the same manner as the test samples except that the watch glasses were covered with aluminum film.
Test conditions: a photostability tester.

human TLR7 = human TLR7 (Homo sapiens (Human), UniProt Q9NYK1); assay: HEK-Blue hTLR7 SEAP reporter agonist assay; type: cell-based; conditions: HEK-Blue hTLR7 cells, 24 hours, SEAP OD650
Chain of human TLR7 (Q9NYK1 27-1049): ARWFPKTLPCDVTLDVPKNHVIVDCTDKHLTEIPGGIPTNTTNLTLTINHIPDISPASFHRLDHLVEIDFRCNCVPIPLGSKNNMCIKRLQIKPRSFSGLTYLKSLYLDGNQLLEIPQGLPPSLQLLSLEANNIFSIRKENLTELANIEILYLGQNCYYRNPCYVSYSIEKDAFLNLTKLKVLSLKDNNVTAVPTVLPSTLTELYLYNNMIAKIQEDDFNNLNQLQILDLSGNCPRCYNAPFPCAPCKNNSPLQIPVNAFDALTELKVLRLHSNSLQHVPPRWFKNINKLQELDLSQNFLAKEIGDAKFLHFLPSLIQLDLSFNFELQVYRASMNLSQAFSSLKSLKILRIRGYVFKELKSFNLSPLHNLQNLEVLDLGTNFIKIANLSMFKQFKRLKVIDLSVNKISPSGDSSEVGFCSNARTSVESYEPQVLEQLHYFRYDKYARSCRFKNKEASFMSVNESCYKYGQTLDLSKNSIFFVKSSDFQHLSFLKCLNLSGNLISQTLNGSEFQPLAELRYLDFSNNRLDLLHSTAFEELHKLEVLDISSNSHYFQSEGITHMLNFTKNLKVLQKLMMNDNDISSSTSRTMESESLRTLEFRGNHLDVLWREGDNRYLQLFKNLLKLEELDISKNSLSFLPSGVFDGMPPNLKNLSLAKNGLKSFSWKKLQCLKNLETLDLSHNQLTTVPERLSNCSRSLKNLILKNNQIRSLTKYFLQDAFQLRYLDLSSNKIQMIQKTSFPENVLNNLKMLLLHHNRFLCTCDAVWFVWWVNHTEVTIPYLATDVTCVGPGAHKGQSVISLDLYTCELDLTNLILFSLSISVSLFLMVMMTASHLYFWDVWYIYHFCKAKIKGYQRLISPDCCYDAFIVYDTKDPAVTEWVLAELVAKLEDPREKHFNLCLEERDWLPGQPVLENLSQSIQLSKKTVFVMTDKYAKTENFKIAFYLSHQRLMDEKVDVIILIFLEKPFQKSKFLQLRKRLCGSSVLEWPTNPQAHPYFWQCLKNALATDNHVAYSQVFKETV
Description: (§1) Experimental Example 1: Screening for In Vitro Receptor Binding Activity of Human Toll-Like Receptor 7 (TLR7) and Human Toll-Like Receptor 8 (TLR8)
(§2) The HEK-Blue™ hTLR7 (catalog No.: hkb-htlr7) and HEK-Blue™ hTLR8 (catalog No.: hkb-htlr8) cell lines used in this experiment were purchased from InvivoGen. The two cell lines were constructed by a human embryonic kidney 293 cell line stably co-transfecting hTLR7 or hTLR8 and inducing expression of Secreted Alkaline Phosphatase (SEAP) reporter gene, wherein SEAP reporter gene was regulated by an IFN-β promoter. […]
(§3) 2. […] The cells were counted and the cell suspension was adjusted to 500,000 cells/mL with the culture medium. […]
(§4) 4. Activity assay on the compound: 20 µL of the induced cell supernatant from each well was added to a cell culture plate containing 180 µL of QUANTI-Blue™ reagent, and after incubation at 37° C. for 1 hour, the optical density absorbance at 650 nm (OD650) was assayed for each well using a multi-functional microplate reader.
(§5) 5. Activity assay on the cells: luciferase signal (RLU) was detected using a multi-functional microplate reader as per the process described in the instructions of ATPlite 1 Step.
(§6) 6. Data analysis: compound activity: OD650 values were analyzed using a GraphPad Prism software and the dose-response curves of the compound were fitted to calculate EC50 values (half maximal effect concentration) for the compound.

[4] = Pharmacokinetic study in mice; type: in vivo; conditions: mouse, plasma
Procedure: Experimental Example 3: Pharmacokinetic Study in Mice
This experiment was intended to evaluate the pharmacokinetic behavior of the compound after a single intravenous injection or intragastric administration in mice.
The concentration of the test compound in plasma was determined by high performance liquid chromatography-tandem mass spectrometry (LC-MS/MS). The retention times of the compound and internal standard, chromatogram acquisitions and integrals of chromatograms were processed using the software Analyst (Applied Biosystems), and the data statistics were processed using the software Watson LIMS (Thermo Fisher Scientific) or Analyst (Applied Biosystems).
The plasma concentrations were processed using a non-compartmental model of WinNonlin™ Version 6.3 (Pharsight, Mountain View, CA), a pharmacokinetic software, and the pharmacokinetic parameters were calculated using a linear-log trapezoidal method.
The related pharmacokinetic parameters in the mice at 1 mg/Kg intravenous injection and 5 mg/Kg oral intragastric administration of the hydrochloride of the compound of formula (I) are shown in Table 4 below.

human TLR8 = human TLR8 (Homo sapiens (Human), UniProt Q9NR97); assay: HEK-Blue hTLR8 SEAP reporter agonist assay; type: cell-based; conditions: HEK-Blue hTLR8 cells, 24 hours, SEAP OD650
Chain of human TLR8 (Q9NR97 27-1041): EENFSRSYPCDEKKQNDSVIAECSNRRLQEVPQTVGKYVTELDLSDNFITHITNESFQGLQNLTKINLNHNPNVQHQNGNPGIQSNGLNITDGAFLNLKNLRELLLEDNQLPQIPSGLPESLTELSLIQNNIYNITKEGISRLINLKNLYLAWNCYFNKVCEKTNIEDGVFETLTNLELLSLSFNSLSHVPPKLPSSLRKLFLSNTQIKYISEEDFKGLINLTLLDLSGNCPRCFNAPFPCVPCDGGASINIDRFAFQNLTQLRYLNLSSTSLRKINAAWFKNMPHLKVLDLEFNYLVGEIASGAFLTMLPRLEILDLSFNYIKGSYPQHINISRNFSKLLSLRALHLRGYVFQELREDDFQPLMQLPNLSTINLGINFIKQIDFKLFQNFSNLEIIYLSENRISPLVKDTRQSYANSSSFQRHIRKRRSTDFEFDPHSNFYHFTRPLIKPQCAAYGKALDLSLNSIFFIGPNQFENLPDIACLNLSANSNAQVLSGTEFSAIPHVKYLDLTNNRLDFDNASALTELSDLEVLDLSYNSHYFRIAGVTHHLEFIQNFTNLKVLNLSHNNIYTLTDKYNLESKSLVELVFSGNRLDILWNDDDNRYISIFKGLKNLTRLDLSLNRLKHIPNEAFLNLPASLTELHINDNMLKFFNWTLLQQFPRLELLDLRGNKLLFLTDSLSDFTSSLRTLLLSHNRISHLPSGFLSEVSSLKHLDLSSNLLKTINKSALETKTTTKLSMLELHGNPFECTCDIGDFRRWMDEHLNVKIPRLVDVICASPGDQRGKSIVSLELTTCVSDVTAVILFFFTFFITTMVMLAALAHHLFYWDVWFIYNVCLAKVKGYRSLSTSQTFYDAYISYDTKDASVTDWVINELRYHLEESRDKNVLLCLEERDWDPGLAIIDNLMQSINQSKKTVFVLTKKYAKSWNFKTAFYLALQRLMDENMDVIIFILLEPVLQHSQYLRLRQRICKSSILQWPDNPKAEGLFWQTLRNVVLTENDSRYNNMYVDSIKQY
Description: as §1, §2, §3, §4, §5, §6

[5] = Day 5, control group (aluminum film)
[6] = Day 10, control group (aluminum film)
[7] = oral intragastric administration 5 mg/Kg

Question: With `CCCC[C@](C)(Cc1ncn[nH]1)Nc1nc(N)nc2cnccc12` as the compound, how does the “High-temperature stability (conclusion)” value ([1]; 5-day, 10-day and 30-day) read?
Answer: good high-temperature stability

Question: And the Appearance ([1]; Day 5)?
Answer: Off-white powder

Question: What about the Content ([1]; Day 5) of the same compound?
Answer: 99.1%

Question: And the Enantiomer ([1]; Day 5)?
Answer: 0.35%

Question: What about the Total impurity content ([1]; Day 5) of the same compound?
Answer: <0.05%

Question: And the Water ([1]; Day 5)?
Answer: 0.25%

Question: And the Appearance ([1]; Day 10)?
Answer: Off-white powder

Question: What about the Content ([1]; Day 10) of the same compound?
Answer: 99.0%

Question: And the Enantiomer ([1]; Day 10)?
Answer: 0.37%

Question: What about the Total impurity content ([1]; Day 10) of the same compound?
Answer: <0.05%

Question: And the Water ([1]; Day 10)?
Answer: 0.24%

Question: What about the Appearance ([1]; Day 30) of the same compound?
Answer: Off-white powder

Question: What about the Content ([1]; Day 30) of the same compound?
Answer: 98.2%

Question: What about the Enantiomer ([1]; Day 30) of the same compound?
Answer: 0.34%

Question: And the Total impurity content ([1]; Day 30)?
Answer: <0.05%

Question: What about the Water ([1]; Day 30) of the same compound?
Answer: 0.26%

Question: What about the Appearance ([1]; initial value) of the same compound?
Answer: Off-white powder

Question: What about the Content ([1]; initial value) of the same compound?
Answer: 98.3%

Question: What about the Enantiomer ([1]; initial value) of the same compound?
Answer: 0.34%

Question: And the Total impurity content ([1]; initial value)?
Answer: <0.05%

Question: What about the Water ([1]; initial value) of the same compound?
Answer: 0.19%

Question: And the Appearance ([2]; Month 1)?
Answer: Off-white powder

Question: And the Content ([2]; Month 1)?
Answer: 98.9%

Question: What about the Total impurity content ([2]; Month 1) of the same compound?
Answer: <0.05%

Question: What about the Water ([2]; Month 1) of the same compound?
Answer: 0.30%

Question: What about the Appearance ([2]; Month 2) of the same compound?
Answer: Off-white powder

Question: And the Content ([2]; Month 2)?
Answer: 99.5%

Question: What about the Total impurity content ([2]; Month 2) of the same compound?
Answer: <0.05%

Question: And the Water ([2]; Month 2)?
Answer: 0.31%

Question: What about the Appearance ([2]; Month 3) of the same compound?
Answer: Off-white powder

Question: And the Content ([2]; Month 3)?
Answer: 98.8%

Question: What about the Enantiomer ([2]; Month 3) of the same compound?
Answer: 0.32%

Question: And the “Stability under accelerated conditions (conclusion, XRPD)” value ([2]; Month 3)?
Answer: stays stable under accelerated conditions

Question: What about the Total impurity content ([2]; Month 3) of the same compound?
Answer: <0.05%

Question: And the Water ([2]; Month 3)?
Answer: 0.28%

Question: What about the XRPD ([2]; Month 3) of the same compound?
Answer: Crystal form A

Question: What about the Appearance ([2]; Month 6) of the same compound?
Answer: Off-white powder

Question: And the Content ([2]; Month 6)?
Answer: 99.3%

Question: What about the Enantiomer ([2]; Month 6) of the same compound?
Answer: 0.34%

Question: And the Total impurity content ([2]; Month 6)?
Answer: <0.05%

Question: What about the Water ([2]; Month 6) of the same compound?
Answer: 0.34%

Question: And the Appearance ([2]; initial value)?
Answer: Off-white powder

Question: And the Content ([2]; initial value)?
Answer: 98.3%

Question: What about the Enantiomer ([2]; initial value) of the same compound?
Answer: 0.34%

Question: What about the Total impurity content ([2]; initial value) of the same compound?
Answer: <0.05%

Question: And the Water ([2]; initial value)?
Answer: 0.19%

Question: And the XRPD ([2]; initial value)?
Answer: Crystal form A

Question: And the “High-humidity stability (conclusion)” value ([3]; 25° C./92.5 RH, 5-day, 10-day and 30-day)?
Answer: good high-humidity stability

Question: What about the Appearance ([3]; Day 5) of the same compound?
Answer: Off-white powder

Question: What about the Content ([3]; Day 5) of the same compound?
Answer: 98.8%

Question: What about the Enantiomer ([3]; Day 5) of the same compound?
Answer: 0.35%

Question: What about the Total impurity content ([3]; Day 5) of the same compound?
Answer: <0.05%

Question: What about the Water ([3]; Day 5) of the same compound?
Answer: 0.29%

Question: What about the Appearance ([3]; Day 10) of the same compound?
Answer: Off-white powder

Question: What about the Content ([3]; Day 10) of the same compound?
Answer: 99.4%

Question: What about the Enantiomer ([3]; Day 10) of the same compound?
Answer: 0.35%

Question: What about the Total impurity content ([3]; Day 10) of the same compound?
Answer: <0.05%

Question: And the Water ([3]; Day 10)?
Answer: 0.29%

Question: And the Appearance ([3]; Day 30)?
Answer: Off-white powder

Question: What about the Content ([3]; Day 30) of the same compound?
Answer: 98.7%

Question: And the Enantiomer ([3]; Day 30)?
Answer: 0.35%

Question: What about the Total impurity content ([3]; Day 30) of the same compound?
Answer: <0.05%

Question: And the Water ([3]; Day 30)?
Answer: 0.30%

Question: What about the Appearance ([3]; initial value) of the same compound?
Answer: Off-white powder

Question: What about the Content ([3]; initial value) of the same compound?
Answer: 98.3%

Question: What about the Enantiomer ([3]; initial value) of the same compound?
Answer: 0.34%

Question: And the Total impurity content ([3]; initial value)?
Answer: <0.05%

Question: And the Water ([3]; initial value)?
Answer: 0.19%

Question: What about the “Photostability (conclusion)” value (Photostability testing; lighting conditions, 5-day and 10-day) of the same compound?
Answer: good photostability

Question: And the Appearance (Photostability testing; [5])?
Answer: Off-white powder

Question: What about the Content (Photostability testing; [5]) of the same compound?
Answer: 98.7%

Question: And the Enantiomer (Photostability testing; [5])?
Answer: 0.35%

Question: What about the Total impurity content (Photostability testing; [5]) of the same compound?
Answer: <0.05%

Question: And the Water (Photostability testing; [5])?
Answer: 0.25%

Question: And the Appearance (Photostability testing; Day 5, test group)?
Answer: Off-white powder

Question: And the Content (Photostability testing; Day 5, test group)?
Answer: 98.8%

Question: What about the Enantiomer (Photostability testing; Day 5, test group) of the same compound?
Answer: 0.34%

Question: What about the Total impurity content (Photostability testing; Day 5, test group) of the same compound?
Answer: <0.05%

Question: What about the Water (Photostability testing; Day 5, test group) of the same compound?
Answer: 0.24%

Question: And the Appearance (Photostability testing; [6])?
Answer: Off-white powder

Question: And the Content (Photostability testing; [6])?
Answer: 99.1%

Question: And the Enantiomer (Photostability testing; [6])?
Answer: 0.36%

Question: And the Total impurity content (Photostability testing; [6])?
Answer: <0.05%

Question: And the Water (Photostability testing; [6])?
Answer: 0.25%

Question: And the Appearance (Photostability testing; Day 10, test group)?
Answer: Off-white powder

Question: And the Content (Photostability testing; Day 10, test group)?
Answer: 98.6%

Question: And the Enantiomer (Photostability testing; Day 10, test group)?
Answer: 0.34%

Question: And the Total impurity content (Photostability testing; Day 10, test group)?
Answer: <0.05%

Question: And the Water (Photostability testing; Day 10, test group)?
Answer: 0.25%

Question: What about the Appearance (Photostability testing; initial value) of the same compound?
Answer: Off-white powder

Question: What about the Content (Photostability testing; initial value) of the same compound?
Answer: 98.3%

Question: What about the Enantiomer (Photostability testing; initial value) of the same compound?
Answer: 0.34%

Question: And the Total impurity content (Photostability testing; initial value)?
Answer: <0.05%

Question: What about the Water (Photostability testing; initial value) of the same compound?
Answer: 0.19%

Question: Which results are given for `CCCC[C@](C)(Cc1ncn[nH]1)Nc1nc(N)nc2cnccc12` [Hydrochloride of compound of formula (I)]?
Answer: EC50 (human TLR7): 33.3 µM; bioavailability ([4]; 5 mg/Kg oral vs 1 mg/Kg intravenous, read-out: Bioavailability (F%)): 27.7%; AUC(0-t) ([4]; intravenous injection 1 mg/Kg): 0.45 µM·h; clearance ([4]; intravenous injection 1 mg/Kg): 90.2 mL/min/kg; Vd ([4]; intravenous injection 1 mg/Kg, read-out: Vdss): 1.75 L/kg; half-life ([4]; intravenous injection 1 mg/Kg, read-out: t½ (converted)): 15 min; AUC(0-t) [4, 7]: 0.624 µM·h; Cmax [4, 7]: 421 nM; Tmax [4, 7]: 30 min; EC50 (human TLR8): 3 nM
